The text below walks through data of patent US6723755B2, “Method of treating rosacea” (priority 2002, dated 2004).

The test system of one data set is rosacea. Kind of data set: topical treatment of rosacea (related materials tested). The note with it: topical application. It is filed as in vivo, humans.
As for `OC1CCCC1O` (stereo not drawn) [1,2-cyclopentanediol], the “usefulness in the present invention (treatment of rosacea)” value (“usefulness in the present invention” below) is reported as “do not work”. Same read-out and setting: next, `CC1(O)CCCCC1` [1-methylcyclohexanol]: “not to be useful”; `OCCCCC1CCCCC1` [4-cyclohexyl-1-butanol]: “not to be useful”; `OCC1(CO)CC2C=CC1C2` (stereo not drawn) [5-norborene-2,2-dimethanol]: “do not work”. Still for that read-out and setting: the result for `CC1(C)[C@H]2C[C@H]1[C@@](C)(O)[C@@H](O)C2` [(1R,2R,3S,5S-(−))-pinanediol] reads “do not work”; that for `C1CCCCC1` [cyclohexane], “not to be useful”.

Turning to `C1=CCCCC1` [cyclohexene], the “usefulness in the present invention” value is reported as “not to be useful”. For the molecule `CC(=O)OC1CCCCC1` [cyclohexyl acetate], the “usefulness in the present invention” value is given as “not to be useful”.

Regarding `O=C(O)C1CCCCC1` [cyclohexyl carboxylic acid], the “usefulness in the present invention” value is reported as “not to be useful”. Turning to `ClC1CCCCC1` [cyclohexyl chloride], the “usefulness in the present invention” value is “not to be useful”. On the same count and under the same terms, next, `CC1CCC(C(C)C)C(O)C1` (stereo not drawn) [menthol]: “not to be useful”.

For a further data set, the system named is skin. Kind of data set: skin irritation on topical application. It is filed as in vivo.
Details: not given
Turning to `CC1CCC(C(C)C)C(O)C1` (stereo not drawn) [menthol], the “irritation (reddening) of the skin to which it is applied” value is given as “can irritate (and thereby redden) the skin”.
